# Measurements taken from PMC6222759, “Chemical Constituents from Scindapsus officinalis (Roxb.) Schott. and Their Anti–Inflammatory Activities” (Molecules : A Journal of Synthetic Chemistry and Natural …, 2018).
# Experiments:
# [1] = system: NO production in LPS-induced Raw 264.7 cells; assay: Anti-inflammatory activity assay against NO production (Griess) in LPS-stimulated RAW 264.7 macrophages; type: cell-based, mouse; conditions: for Anti-inflammatory activity against nitric oxide production (in words): LPS-induced Raw 264.7 cells, compared with positive control dexamethasone; for IC50: Mus musculus, RAW264.7, LPS (1.0 μg/mL)-induced Raw 264.7 cells, 2 h pre-incubation, 24 h stimulation, mean ± SD, n = 3, read-out: IC50 NO (inhibitory effect on NO production)
# Method: (Raw 264.7 cells were subjected to compounds 3 and 7 with six different concentrations and incubated for 2 h firstly, and then stimulated by adding LPS for 24 h. Then, Griess reagents I and II were added to cell supernatants to detect the NO production levels. The cytotoxicity against macrophage Raw 264.7 cells of compounds 3 and 7 were investigated using the MTT method; NO: Inhibition rates of NO release (%); MTT: Inhibition rates of cell viability (%)).
# The anti-inflammatory activity assay against NO production in RAW 264.7 mouse peritoneal macrophages was conducted mainly using the procedures described previously. […] After being stimulated for 24 h, 50 μL of cell supernatants were taken out from each well and mixed with an equal volume of Griess reagents I and II to detect the NO production levels by measuring absorbance at 570 nm. All experiments were performed in triplicate. The NO inhibition is calculated as the percentage reduction of LPS stimulation.
# [2] = Cytotoxicity against macrophage Raw 264.7 cells (MTT assay); conditions: mouse
# Method: (§1) The cytotoxicity against macrophage Raw 264.7 cells was investigated using the MTT assay. Briefly, after the Raw 264.7 cells were treated with the test compounds for 24 h, 50 μL of MTT (5 mg/mL) was added to each well, and the cells were incubated for an additional 4 h. After the formazan crystals formed, cell supernatants were removed and 100 μL of DMSO was added to dissolve the crystals. Absorbance for each well was analyzed in the same way as that for NO inhibition assay.
# [3] = system: macrophage Raw 264.7 cells; assay: as above; conditions: MTT method; concentration of 20 μM
# Method: as §1
Structure (SMILES),IC50 [1] [µM],Anti-inflammatory activity against nitric oxide production (in words) [1],"inhibition at 24 h, 20 µM ([2]; Raw 264.7 macrophage cells) [%]",Cell toxicity against macrophage Raw 264.7 cells (in words) [3],"inhibition at 24 h, 20 µM [2] [%]"
"CC(C)=C[C@@H]1CC=C[C@]1(C)OC1O[C@H](CO)[C@@H](O)[C@H](O)[C@H]1O (relative stereo) [Compound 1, (rel)-(1R, 5R)-1-Methyl-5-(2-methylprop-1-en-1-yl)cyclopent-2-en-1-O-β-D-glucopyranoside]",> 100,,1.8,,
"COC(=O)c1cc(O)c(O)c(O)c1 [Compound 7, methyl gallate]",18.9 ± 0.3,moderate inhibitory effects,,neither showed any cell toxicity,2.4
"C[C@@H]1C[C@H]2[C@@H]3CCC4=CC(=O)C=C[C@]4(C)[C@@]3(F)[C@@H](O)C[C@]2(C)[C@@]1(O)C(=O)CO [Dexamethasone, dexamethasone, reference compound]",2.2 ± 0.02,,,,
"OC[C@H]1O[C@@H](OCCc2ccccc2)[C@H](O)[C@@H](O)[C@@H]1O [Compound 5, 2-phenylethyl β-D-Glucopyranoside]",> 100,,4.5,,
"CCCCCCOC1O[C@H](CO)[C@@H](O)[C@H](O)[C@H]1O (stereo partly drawn) [Compound 6, hexyl-O-β-D-Glucopyranoside]",> 100,,1.2,,

# Further lines, with some results ahead:
IC50 [1] [µM],Structure (SMILES),Anti-inflammatory activity against nitric oxide production (in words) [1],"inhibition at 24 h, 20 µM ([2]; Raw 264.7 macrophage cells) [%]",Cell toxicity against macrophage Raw 264.7 cells (in words) [3],"inhibition at 24 h, 20 µM [2] [%]"
12.2 ± 0.8,"COC(=O)/C=C1/C[C@H](O)[C@H](OC(=O)C=Cc2ccc(O)c(O)c2)[C@H]1O [Compound 3, (Z)-(1S,2S,5S)-2,5-Dihydroxy-3-(2-methoxy-2-oxoethylidene)cyclopentyl 3-(3,4-dihydroxyphenyl) acrylate]",moderate inhibitory effects,4.7,neither showed any cell toxicity,
> 100,"O=C(O)/C=C/c1ccc(O)c(O)c1 [Compound 4, caffeic acid]",,,,1.1
> 100,"C=CCc1ccc(OC2O[C@H](CO)[C@@H](O[C@H]3[C@H](O)[C@@H](O)[C@H](OCC4(CC)CC4)O[C@@H]3CO)[C@H](O)[C@H]2O)c(OC)c1 (stereo partly drawn) [Compound 2, 2-Methoxy-4-(prop-2-enyl)-1″-(1-ethylcyclopropyl) methanol phenyl O-β-D-glucopyranosyl-(4→4)-β-D-glucopyranoside]",,-0.5,,
